Laboratory results taken from PubChem BioAssay AID330 (DTP/NCI, 2004).
“And” between values parts separate entries of the source, which are not always exact repeats. Equal values may be shown once. Inconclusive results and toxic doses are left out.

Tested on: P388 leukemia ip, CD2F1 mice, survival T/C
Assay: NCI In Vivo Anticancer Drug Screen. Data for tumor model P388 Leukemia (intraperitoneal) in CD2F1 (CDF1) mice
Conditions: endpoint: median survival time, higher = longer survival
Procedure, shortened: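 Mice carrying the transplanted tumor received test compound or vehicle. Survival was recorded in each group, and the value is the treated-group measurement divided by that of the vehicle-treated control group.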

[1] = dose: 50.0 mg/kg/injection, schedule: Q01DX005 (ip), vehicle: Klucel (hydroxypropylcellulose) (HPC)
[2] = dose: 100.0 mg/kg/injection, schedule: Q01DX005 (ip), vehicle: Klucel (hydroxypropylcellulose) (HPC)
[3] = dose: 200.0 mg/kg/injection, schedule: Q01DX005 (ip), vehicle: Klucel (hydroxypropylcellulose) (HPC)
[4] = dose: 50.0 mg/kg/injection, schedule: Q01DX009 (ip), vehicle: saline with Tween-80
[5] = dose: 100.0 mg/kg/injection, schedule: Q01DX009 (ip), vehicle: saline with Tween-80

For `c1ccc2c3c([nH]c2c1)C1CC2CCCCC2CN1CC3` (stereo unspecified), the T/C (dose: 60.0 mg/kg/injection, schedule: Q01DX005 (ip), vehicle: saline with Tween-80) was 94 % of control and the T/C (dose: 120.0 mg/kg/injection, schedule: Q01DX005 (ip), vehicle: saline with Tween-80) was 111 % of control.
For `COc1ccc(/C=N\N=C(/[O-])c2ccccc2O)cc1.COc1ccc(/C=N\N=C(/[O-])c2ccccc2O)cc1.[Cu+2].[OH3+].[OH3+]`, the T/C (dose: 25.0 mg/kg/injection, schedule: Q04DX002 (ip), vehicle: saline with Tween-80) was 98 % of control, the T/C (dose: 50.0 mg/kg/injection, schedule: Q04DX002 (ip), vehicle: saline with Tween-80) was 93 % of control and the T/C (dose: 100.0 mg/kg/injection, schedule: Q04DX002 (ip), vehicle: saline with Tween-80) was 93 % of control.
In the case of `CC(=O)NC1CCOC1=O` (stereo unspecified), the T/C (dose: 12.5 mg/kg/injection, schedule: Q01DX009 (ip), vehicle: water) was 95 % of control, the T/C (dose: 25.0 mg/kg/injection, schedule: Q01DX009 (ip), vehicle: water) was 87 % of control and the T/C (dose: 50.0 mg/kg/injection, schedule: Q01DX009 (ip), vehicle: water) was 109 % of control. For the same molecule, the T/C (dose: 100.0 mg/kg/injection, schedule: Q01DX009 (ip), vehicle: water) was 111 % of control and the T/C (dose: 200.0 mg/kg/injection, schedule: Q01DX009 (ip), vehicle: water) was 92 % of control.
For `CCCN(CCC)C(=O)Cn1cc([N+](=O)[O-])s/c1=N/C(=O)NCC`, the T/C (dose: 25.0 mg/kg/injection, schedule: Q01DX001 (ip), vehicle: saline with Tween-80) was 97 % of control, the T/C (dose: 50.0 mg/kg/injection, schedule: Q01DX001 (ip), vehicle: saline with Tween-80) was 99 % of control and the T/C (dose: 100.0 mg/kg/injection, schedule: Q01DX001 (ip), vehicle: saline with Tween-80) was 106 % of control.
With `Cc1ccc(NC(=O)Nc2cc(S(=O)(=O)O)ccc2Oc2ccccc2Cl)cc1` the T/C (dose: 100.0 mg/kg/injection, schedule: Q04DX003 (ip), vehicle: saline sonified) was 100 % of control, the T/C (dose: 200.0 mg/kg/injection, schedule: Q04DX003 (ip), vehicle: saline sonified) was 90 % of control and the T/C (dose: 400.0 mg/kg/injection, schedule: Q04DX003 (ip), vehicle: saline sonified) was 100 % of control.
`Cc1cc(Nc2ccc3c(c2)OCO3)c2cc3c(cc2n1)OCO3` was tested, and the T/C [1] was 105 % of control and 107 % of control, the T/C [2] was 116 % of control and the T/C [3] was 165 % of control and 178 % of control.
In the case of `C(=N\Nc1nc2ccccc2s1)/c1cccs1`, the T/C (dose: 50.0 mg/kg/injection, schedule: Q01DX009 (ip), vehicle: saline) was 100 % of control, the T/C (dose: 100.0 mg/kg/injection, schedule: Q01DX009 (ip), vehicle: saline) was 87 % of control and the T/C (dose: 200.0 mg/kg/injection, schedule: Q01DX009 (ip), vehicle: saline) was 106 % of control.
With `CCOC(=O)C1(CC)CC(OCC)OC1=O` (stereo unspecified) the T/C [1] was 100 % of control, the T/C [2] was 93 % of control and the T/C [3] was 97 % of control.
With `O=NN(C(=O)NC1CCC(O)CC1)C1CCC(O)CC1` (stereo unspecified) the T/C (dose: 25.0 mg/kg/injection, schedule: Q01DX001 (ip), vehicle: distilled water + Tween-80) was 102 % of control, the T/C (dose: 50.0 mg/kg/injection, schedule: Q01DX001 (ip), vehicle: distilled water + Tween-80) was 99 % of control and the T/C (dose: 100.0 mg/kg/injection, schedule: Q01DX001 (ip), vehicle: distilled water + Tween-80) was 106 % of control. The T/C (dose: 200.0 mg/kg/injection, schedule: Q01DX001 (ip), vehicle: distilled water + Tween-80) was 101 % of control.
With `COC(=O)N1C(C)=Cc2ccccc2C1C#N` (stereo unspecified) the T/C (dose: 50.0 mg/kg/injection, schedule: Q01DX009 (ip), vehicle: suspension in saline) was 100 % of control, the T/C (dose: 100.0 mg/kg/injection, schedule: Q01DX009 (ip), vehicle: suspension in saline) was 98 % of control and the T/C (dose: 200.0 mg/kg/injection, schedule: Q01DX009 (ip), vehicle: suspension in saline) was 95 % of control.
For `COc1ccc2nc3ccccc3c(SCCCCCCSc3c4ccccc4nc4ccc(OC)cc34)c2c1`, the T/C (dose: 15.0 mg/kg/injection, schedule: Q01DX005 (ip), vehicle: Klucel (hydroxypropylcellulose) (HPC)) was 101 % of control, the T/C (dose: 30.0 mg/kg/injection, schedule: Q01DX005 (ip), vehicle: Klucel (hydroxypropylcellulose) (HPC)) was 98 % of control and the T/C (dose: 60.0 mg/kg/injection, schedule: Q01DX005 (ip), vehicle: Klucel (hydroxypropylcellulose) (HPC)) was 100 % of control and 89 % of control and 90 % of control. The T/C (dose: 240.0 mg/kg/injection, schedule: Q01DX005 (ip), vehicle: Klucel (hydroxypropylcellulose) (HPC)) was 89 % of control.
For `O=C(O)C(O)C(F)(F)C(F)(F)C(F)(F)F` (stereo unspecified), the T/C (dose: 50.0 mg/kg/injection, schedule: Q01DX005 (ip), vehicle: saline with Tween-80) was 97 % of control, the T/C (dose: 100.0 mg/kg/injection, schedule: Q01DX005 (ip), vehicle: saline with Tween-80) was 94 % of control and the T/C (dose: 200.0 mg/kg/injection, schedule: Q01DX005 (ip), vehicle: saline with Tween-80) was 88 % of control.
With `CCCCCCCOC(=O)c1ccc(O)cc1` the T/C (dose: 12.5 mg/kg/injection, schedule: Q01DX009 (ip), vehicle: saline with Tween-80) was 105 % of control, the T/C (dose: 25.0 mg/kg/injection, schedule: Q01DX009 (ip), vehicle: saline with Tween-80) was 100 % of control and the T/C [4] was 99 % of control and 96 % of control. For the same molecule, the T/C [5] was 95 % of control.
For `CCN(CC)CCNc1ccc(C)c2sc3c(O)cccc3c(=O)c12`, the T/C [4] was 104 % of control, the T/C [5] was 100 % of control and the T/C (dose: 200.0 mg/kg/injection, schedule: Q01DX009 (ip), vehicle: saline with Tween-80) was 104 % of control.
